Reference: US12371454B2, “Cyclic peptide compound having Kras inhibitory action” (priority 2019, dated 2025)
Starred links: 1 amine or outer side, 2 acyl side, 3 side chain; linkers in the order of their positions; H or OH if unused. Positions of bridges follow the written chain, without caps; N, C: chain ends. Non-standard residues stand in square brackets, D forms with d. Residues, ends and D or L forms follow the SMILES beside them. *: point of attachment. hPhe(3-Cl-4-CF3) = N[C@@H](CCc1ccc(C(F)(F)F)c(Cl)c1)C(=O)O; NMeAbu(4,4,4-F3) = CN[C@@H](CC(F)(F)F)C(=O)O; NMePhe(4-Me) = CN[C@@H](Cc1ccc(C)cc1)C(=O)O; NMedβ3hAla = C[C@H](CC(=O)[*:2])N(C)[*:1]; NMeAla(cPent) = CN[C@@H](CC1CCCC1)C(=O)O; NMeNva(5,5-F2) = CN[C@@H](CCC(F)F)C(=O)O; NMeGly(cPent) = CN[C@H](C(=O)O)C1CCCC1; NMeCha = CN[C@@H](CC1CCCCC1)C(=O)O; NMeChg = CN[C@H](C(=O)O)C1CCCCC1; NMeI = CC[C@H](C)[C@H](NC)C(=O)O; NMeD = CN[C@@H](CC(=O)O)C(=O)O; NMeL = CN[C@@H](CC(C)C)C(=O)O; NMeV = CN[C@H](C(=O)O)C(C)C; NMeS = CN[C@@H](CO)C(=O)O; NMeA = CN[C@@H](C)C(=O)O; Piperidide = C1CCN(*)CC1; Pyrrolidide = C1CCN(*)C1; Ac5c = NC1(C(=O)O)CCCC1; Aze = O=C(O)[C@@H]1CCN1; Aib = CC(C)(N)C(=O)O; Sar = CNCC(=O)O; Propyl = CCC*

Key:
[1] = target: T1, Kras and SOS1 (biotin-tagged human Kras loaded with GDP, His-tagged human SOS1) (Homo sapiens, UniProt P01116, G12D); assay: Protein-protein interaction inhibition between Kras and SOS1 (KrasGl2D-SOS PPI) using AlphaScreen; type: binding; conditions: AlphaScreen; biotin-tagged human Kras loaded with GDP, His-tagged human SOS1; read-out: KRAS G12D-SOS PPI IC50
T1 construct: made in house; host or cells: E. coli (stated for Kras only)
Outline: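 Binding between SOS1 and Kras is detected as bead-proximity luminescence: illuminate Ni-conjugated donors (680 nm), collect 520-620 nm emission from streptavidin-conjugated acceptors; Kras carries biotin and GDP loaded after purification, SOS1 carries a His tag.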

[2] = system: Human pancreatic cancer cell line AsPC-1; assay: Measurement of AsPC-1 cell growth inhibition (AsPC-1 CGI); type: cell-based; conditions: 96 h
Outline: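 AsPC-1 cells in 15% FBS RPMI-1640 were exposed to test compound for 96 hours at 37° C, with CellTiter-Glo as endpoint.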

T1 sequence (P01116 1-188 isoform P01116-2 G12D): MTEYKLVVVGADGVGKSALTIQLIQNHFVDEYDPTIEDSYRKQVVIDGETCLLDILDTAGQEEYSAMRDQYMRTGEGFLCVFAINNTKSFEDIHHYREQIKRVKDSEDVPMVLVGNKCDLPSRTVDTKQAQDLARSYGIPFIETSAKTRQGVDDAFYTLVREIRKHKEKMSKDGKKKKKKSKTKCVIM

Structure (SMILES)	IC50 [1] [nM]	IC50 [2] [nM]
CC[C@H](C)[C@@H]1NC(=O)[C@H](CC(C)C)N(C)C(=O)C[C@@H](C(=O)N2CCCC2)N(C)C(=O)[C@H](C(C)C)N(C)C(=O)C2(CCCC2)NC(=O)[C@@H]2CCCN2C(=O)[C@H](CCc2ccc(C(F)(F)F)c(Cl)c2)NC(=O)CN(C)C(=O)[C@H](CC2CCCCC2)N(C)C(=O)[C@@H]2CCN2C(=O)[C@H](C)N(C)C1=O [Compound 1656] ([NMeL]I[NMeA][Aze][NMeCha][Sar][hPhe(3-Cl-4-CF3)]P[Ac5c][NMeV][NMeD]-Pyrrolidide; lactam N-11)	1.4	100 to 500
CC[C@H](C)[C@@H]1NC(=O)[C@H](CC(C)C)N(C)C(=O)C[C@@H](C(=O)N2CCCC2)N(C)C(=O)[C@H](C2CCCCC2)N(C)C(=O)C2(CCCC2)NC(=O)[C@@H]2CCCN2C(=O)[C@H](CCc2ccc(C(F)(F)F)c(Cl)c2)NC(=O)CN(C)C(=O)[C@H](Cc2ccc(C)cc2)N(C)C(=O)CN(C)C(=O)CN(C)C1=O [Compound 1658] ([NMeL]I[Sar][Sar][NMePhe(4-Me)][Sar][hPhe(3-Cl-4-CF3)]P[Ac5c][NMeChg][NMeD]-Pyrrolidide; lactam N-11)	0.55	20 to 50
CC[C@H](C)[C@@H]1NC(=O)[C@H](CC2CCCC2)N(C)C(=O)C[C@@H](C(=O)N2CCCCC2)N(C)C(=O)[C@H](C2CCCCC2)N(C)C(=O)C2(CCCC2)NC(=O)[C@@H]2CCCN2C(=O)[C@H](CCc2ccc(C(F)(F)F)c(Cl)c2)NC(=O)CN(C)C(=O)[C@H](CC2CCCCC2)N(C)C(=O)CN(C)C(=O)CN(C)C1=O [Compound 1663] ([NMeAla(cPent)]I[Sar][Sar][NMeCha][Sar][hPhe(3-Cl-4-CF3)]P[Ac5c][NMeChg][NMeD]-Piperidide; lactam N-11)	1.6	100 to 500
CCCOC[C@H]1C(=O)N[C@@H]([C@@H](C)CC)C(=O)N(C)CC(=O)N(C)CC(=O)N(C)[C@@H](CC2CCCCC2)C(=O)N(C)CC(=O)N[C@@H](CCc2ccc(C(F)(F)F)c(Cl)c2)C(=O)N2CCC[C@H]2C(=O)NC2(CCCC2)C(=O)N(C)[C@@H](C2CCCCC2)C(=O)N(C)[C@H](C(=O)N2CCCCC2)CC(=O)N1C [Compound 1668] ([NMeS](Propyl)I[Sar][Sar][NMeCha][Sar][hPhe(3-Cl-4-CF3)]P[Ac5c][NMeChg][NMeD]-Piperidide; lactam N-11)	0.85	50 to 100
CC[C@H](C)[C@@H]1NC(=O)[C@H](CC(C)C)N(C)C(=O)C[C@@H](C(=O)N2CCCCC2)N(C)C(=O)[C@H](C2CCCCC2)N(C)C(=O)C2(CCCC2)NC(=O)[C@@H]2CCCN2C(=O)[C@H](CCc2ccc(C(F)(F)F)c(Cl)c2)NC(=O)CN(C)C(=O)[C@H](C2CCCC2)N(C)C(=O)CN(C)C(=O)CN(C)C1=O [Compound 1669] ([NMeL]I[Sar][Sar][NMeGly(cPent)][Sar][hPhe(3-Cl-4-CF3)]P[Ac5c][NMeChg][NMeD]-Piperidide; lactam N-11)	1.8	100 to 500
CC[C@H](C)[C@@H]1NC(=O)[C@H]([C@@H](C)CC)N(C)C(=O)C[C@@H](C(=O)N2CCCCC2)N(C)C(=O)[C@H](C2CCCCC2)N(C)C(=O)C2(CCCC2)NC(=O)[C@@H]2CCCN2C(=O)[C@H](CCc2ccc(C(F)(F)F)c(Cl)c2)NC(=O)CN(C)C(=O)[C@H](CC2CCCCC2)N(C)C(=O)CN(C)C(=O)CN(C)C1=O [Compound 1671] ([NMeI]I[Sar][Sar][NMeCha][Sar][hPhe(3-Cl-4-CF3)]P[Ac5c][NMeChg][NMeD]-Piperidide; lactam N-11)	1.1	50 to 100
CC[C@H](C)[C@@H]1NC(=O)[C@H](CC(C)C)N(C)C(=O)C[C@@H](C)N(C)C(=O)[C@H](C2CCCCC2)N(C)C(=O)C2(CCCC2)NC(=O)[C@@H]2CCCN2C(=O)[C@H](CCc2ccc(C(F)(F)F)c(Cl)c2)NC(=O)CN(C)C(=O)[C@H](Cc2ccc(C)cc2)N(C)C(=O)[C@@H]2CCN2C(=O)[C@H](C)N(C)C1=O [Compound 1673] (cyclo([Ac5c][NMeChg][NMedβ3hAla][NMeL]I[NMeA][Aze][NMePhe(4-Me)][Sar][hPhe(3-Cl-4-CF3)]P))	5.4	100 to 500
CC[C@H](C)[C@@H]1NC(=O)[C@H](CC(C)C)N(C)C(=O)C[C@@H](C(=O)N2CCCCC2)N(C)C(=O)[C@H](C2CCCCC2)N(C)C(=O)C(C)(C)NC(=O)[C@@H]2CCCN2C(=O)[C@H](CCc2ccc(C(F)(F)F)c(Cl)c2)NC(=O)CN(C)C(=O)[C@H](CC2CCCCC2)N(C)C(=O)CN(C)C(=O)CN(C)C1=O [Compound 1680] ([NMeL]I[Sar][Sar][NMeCha][Sar][hPhe(3-Cl-4-CF3)]P[Aib][NMeChg][NMeD]-Piperidide; lactam N-11)	0.61	50 to 100
CC[C@H](C)[C@@H]1NC(=O)[C@H](CC(C)C)N(C)C(=O)C[C@@H](C)N(C)C(=O)[C@H](C2CCCCC2)N(C)C(=O)C2(CCCC2)NC(=O)[C@@H]2CCCN2C(=O)[C@H](CCc2ccc(C(F)(F)F)c(Cl)c2)NC(=O)CN(C)C(=O)[C@H](Cc2ccc(C)cc2)N(C)C(=O)CN(C)C(=O)CN(C)C1=O [Compound 1682] (cyclo([Ac5c][NMeChg][NMedβ3hAla][NMeL]I[Sar][Sar][NMePhe(4-Me)][Sar][hPhe(3-Cl-4-CF3)]P))	2.4	100 to 500
CC[C@H](C)[C@@H]1NC(=O)[C@H](CC(C)C)N(C)C(=O)C[C@@H](C(=O)N2CCCCC2)N(C)C(=O)[C@H](C(C)C)N(C)C(=O)C2(CCCC2)NC(=O)[C@@H]2CCCN2C(=O)[C@H](CCc2ccc(C(F)(F)F)c(Cl)c2)NC(=O)CN(C)C(=O)[C@H]([C@@H](C)CC)N(C)C(=O)[C@@H]2CCN2C(=O)[C@H](C)N(C)C1=O [Compound 1684] ([NMeL]I[NMeA][Aze][NMeI][Sar][hPhe(3-Cl-4-CF3)]P[Ac5c][NMeV][NMeD]-Piperidide; lactam N-11)	4.3	100 to 500
CC[C@H](C)[C@@H]1NC(=O)[C@H](CC(C)C)N(C)C(=O)C[C@@H](C(=O)N2CCCCC2)N(C)C(=O)[C@H](C2CCCCC2)N(C)C(=O)C2(CCCC2)NC(=O)[C@@H]2CCCN2C(=O)[C@H](CCc2ccc(C(F)(F)F)c(Cl)c2)NC(=O)CN(C)C(=O)[C@H]([C@@H](C)CC)N(C)C(=O)CN(C)C(=O)CN(C)C1=O [Compound 1686] ([NMeL]I[Sar][Sar][NMeI][Sar][hPhe(3-Cl-4-CF3)]P[Ac5c][NMeChg][NMeD]-Piperidide; lactam N-11)	1.5	100 to 500
CC[C@H](C)[C@@H]1NC(=O)[C@H](CC(C)C)N(C)C(=O)C[C@@H](C(=O)N2CCCCC2)N(C)C(=O)[C@H](C2CCCCC2)N(C)C(=O)C2(CCCC2)NC(=O)[C@@H]2CCCN2C(=O)[C@H](CCc2ccc(C(F)(F)F)c(Cl)c2)NC(=O)CN(C)C(=O)[C@H](CC2CCCC2)N(C)C(=O)CN(C)C(=O)CN(C)C1=O [Compound 1689] ([NMeL]I[Sar][Sar][NMeAla(cPent)][Sar][hPhe(3-Cl-4-CF3)]P[Ac5c][NMeChg][NMeD]-Piperidide; lactam N-11)	1.1	50 to 100
CC[C@H](C)[C@@H]1NC(=O)[C@H](CC(C)C)N(C)C(=O)C[C@@H](C)N(C)C(=O)[C@H](C2CCCC2)N(C)C(=O)C2(CCCC2)NC(=O)[C@@H]2CCCN2C(=O)[C@H](CCc2ccc(C(F)(F)F)c(Cl)c2)NC(=O)CN(C)C(=O)[C@H](Cc2ccc(C)cc2)N(C)C(=O)CN(C)C(=O)CN(C)C1=O [Compound 1694] (cyclo([Ac5c][NMeGly(cPent)][NMedβ3hAla][NMeL]I[Sar][Sar][NMePhe(4-Me)][Sar][hPhe(3-Cl-4-CF3)]P))	0.55	20 to 50
CC[C@H](C)[C@@H]1NC(=O)[C@H](C)N(C)C(=O)C[C@@H](C(=O)N2CCCCC2)N(C)C(=O)[C@H](C2CCCCC2)N(C)C(=O)C2(CCCC2)NC(=O)[C@@H]2CCCN2C(=O)[C@H](CCc2ccc(C(F)(F)F)c(Cl)c2)NC(=O)CN(C)C(=O)[C@H](CC2CCCCC2)N(C)C(=O)CN(C)C(=O)CN(C)C1=O [Compound 1696] ([NMeA]I[Sar][Sar][NMeCha][Sar][hPhe(3-Cl-4-CF3)]P[Ac5c][NMeChg][NMeD]-Piperidide; lactam N-11)	0.57	50 to 100
CC[C@H](C)[C@@H]1NC(=O)[C@H](CC(C)C)N(C)C(=O)C[C@@H](C(=O)N2CCCC2)N(C)C(=O)[C@H](C(C)C)N(C)C(=O)C2(CCCC2)NC(=O)[C@@H]2CCCN2C(=O)[C@H](CCc2ccc(C(F)(F)F)c(Cl)c2)NC(=O)CN(C)C(=O)[C@H](CC2CCCC2)N(C)C(=O)CN(C)C(=O)CN(C)C1=O [Compound 1699] ([NMeL]I[Sar][Sar][NMeAla(cPent)][Sar][hPhe(3-Cl-4-CF3)]P[Ac5c][NMeV][NMeD]-Pyrrolidide; lactam N-11)	1.1	100 to 500
CC[C@H](C)[C@@H]1NC(=O)[C@H](CCC(F)F)N(C)C(=O)C[C@@H](C(=O)N2CCCCC2)N(C)C(=O)[C@H](C2CCCCC2)N(C)C(=O)C2(CCCC2)NC(=O)[C@@H]2CCCN2C(=O)[C@H](CCc2ccc(C(F)(F)F)c(Cl)c2)NC(=O)CN(C)C(=O)[C@H](CC2CCCCC2)N(C)C(=O)CN(C)C(=O)CN(C)C1=O [Compound 1700] ([NMeNva(5,5-F2)]I[Sar][Sar][NMeCha][Sar][hPhe(3-Cl-4-CF3)]P[Ac5c][NMeChg][NMeD]-Piperidide; lactam N-11)	0.66	20 to 50
CC[C@H](C)[C@@H]1NC(=O)[C@H](CC(F)(F)F)N(C)C(=O)C[C@@H](C(=O)N2CCCCC2)N(C)C(=O)[C@H](C2CCCCC2)N(C)C(=O)C2(CCCC2)NC(=O)[C@@H]2CCCN2C(=O)[C@H](CCc2ccc(C(F)(F)F)c(Cl)c2)NC(=O)CN(C)C(=O)[C@H](CC2CCCCC2)N(C)C(=O)CN(C)C(=O)CN(C)C1=O [Compound 1701] ([NMeAbu(4,4,4-F3)]I[Sar][Sar][NMeCha][Sar][hPhe(3-Cl-4-CF3)]P[Ac5c][NMeChg][NMeD]-Piperidide; lactam N-11)	0.75	20 to 50
